#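 Tested at 5 concentrations; 48 h exposure; 96-well plates; endpoints linearly interpolated, else capped at highest concentration. GI50 marks 50% less growth. TGI marks complete inhibition of growth.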
# Legend:
# Test in all cases: NCI tumour cell line growth inhibition, 48 h
# [1] = test system: MDA-MB-435
# [2] = test system: HT29 colon
# [3] = test system: HOP-92 NSCLC
# [4] = test system: ACHN renal
# [5] = test system: SR leukemia
# [6] = test system: HOP-62 NSCLC
# [7] = test system: TK-10 renal
# [8] = test system: PC-3 prostate
# [9] = test system: M14 melanoma
# [10] = test system: SF-295 CNS
# [11] = test system: NCI-H23 lung
# [12] = test system: 786-0 renal
# [13] = test system: SN12C renal
# [14] = test system: MCF7 breast
# [15] = test system: NCI/ADR-RES ovarian
# [16] = test system: OVCAR-3 ovarian
# [17] = test system: IGROV1 ovarian
# [18] = test system: LOX IMVI melanoma
# [19] = test system: NCI-H226 lung
# [20] = test system: RPMI-8226 leukemia
# [21] = test system: OVCAR-5 ovarian
# [22] = test system: HCT-116 colon
# [23] = test system: OVCAR-8 ovarian
# [24] = test system: DU-145 prostate
# [25] = test system: SK-MEL-28 melanoma
# [26] = test system: SW-620 colon
# [27] = test system: CAKI-1 renal
# [28] = test system: EKVX NSCLC
# [29] = test system: SK-MEL-5 melanoma
# [30] = test system: SF-268 CNS
# [31] = test system: KM12 colon
# [32] = test system: SK-OV-3 ovarian
# [33] = test system: K-562 leukemia
# [34] = test system: MOLT-4 leukemia
# [35] = test system: SK-MEL-2 melanoma
# [36] = test system: SF-539 CNS
# [37] = test system: U251 CNS
# [38] = test system: UO-31 renal
# [39] = test system: COLO 205 colon
# [40] = test system: A498 renal
# [41] = test system: HCT-15 colon
# [42] = test system: MDA-MB-231 breast
# [43] = test system: NCI-H460 lung
# [44] = test system: UACC-257 melanoma
# [45] = test system: RXF 393 renal
# [46] = test system: HCC-2998 colon
# [47] = test system: A549 NSCLC
# [48] = test system: OVCAR-4 ovarian
# [49] = test system: NCI-H522 lung
# [50] = test system: SNB-19 CNS
# [51] = test system: MALME-3M melanoma
# [52] = test system: T-47D breast
# [53] = test system: HS 578T breast
# [54] = test system: HL-60(TB) leukemia
# [55] = test system: SNB-75 CNS
# [56] = test system: UACC-62 melanoma
smiles,measurement,setting,value
O=C(c1ccccc1)c1cc(Cl)ccc1OCCCCN1CCN(CCCCOc2ccc(Cl)cc2C(=O)c2ccccc2)CC1,GI50,[1],3.65 µM
same,TGI,[1],11.9 µM
same,GI50,[2],2.59 µM
same,TGI,[2],7.66 µM
same,GI50,[3],2.53 µM
same,TGI,[3],13 µM
same,GI50,[4],4.64 µM
same,TGI,[4],16.1 µM
same,GI50,[5],1.83 µM
same,TGI,[5],4.89 µM
same,GI50,[6],3.82 µM
same,TGI,[6],13.6 µM
same,GI50,[7],4.26 µM
same,TGI,[7],17 µM
same,GI50,[8],3.59 µM
same,TGI,[8],13.5 µM
same,GI50,[9],2.01 µM
same,TGI,[9],4.14 µM
same,GI50,[10],2 µM
same,TGI,[10],4.15 µM
same,GI50,[11],4.73 µM
same,TGI,[11],18.3 µM
same,GI50,[12],1.96 µM
same,TGI,[12],3.7 µM
same,GI50,[13],4.48 µM
same,TGI,[13],18 µM
same,GI50,[14],1.98 µM
same,TGI,[14],4.83 µM
same,GI50,[15],2.93 µM
same,TGI,[15],12 µM
same,GI50,[16],2.36 µM
same,TGI,[16],5.78 µM
same,GI50,[17],1.6 µM
same,TGI,[17],3.22 µM
same,GI50,[18],1.73 µM
same,TGI,[18],3.21 µM
same,GI50,[19],13.2 µM
same,TGI,[19],32.2 µM
same,GI50,[20],1.16 µM
same,TGI,[20],2.8 µM
same,GI50,[21],17.9 µM
same,TGI,[21],48.1 µM
same,GI50,[22],1.79 µM
same,TGI,[22],3.38 µM
same,GI50,[23],1.82 µM
same,TGI,[23],3.37 µM
same,GI50,[24],2.74 µM
same,TGI,[24],10.1 µM
same,GI50,[25],11.5 µM
same,TGI,[25],24.2 µM
same,GI50,[26],2.92 µM
same,TGI,[26],8.5 µM
same,GI50,[27],4.08 µM
same,TGI,[27],15.1 µM
same,GI50,[28],10.8 µM
same,TGI,[28],24.7 µM
same,GI50,[29],2.34 µM
same,TGI,[29],4.88 µM
same,GI50,[30],7.03 µM
same,TGI,[30],23.8 µM
same,GI50,[31],2.09 µM
same,TGI,[31],4.55 µM
same,GI50,[32],17.1 µM
same,TGI,[32],31.9 µM
same,GI50,[33],1.9 µM
same,TGI,[33],4.87 µM
same,GI50,[34],3.3 µM
same,TGI,[34],7.5 µM
same,GI50,[35],2.58 µM
same,TGI,[35],4.92 µM
same,GI50,[36],4.8 µM
same,TGI,[36],15.6 µM
same,GI50,[37],2.03 µM
same,TGI,[37],4.14 µM
same,GI50,[38],3.86 µM
same,TGI,[38],15.1 µM
same,GI50,[39],1.95 µM
same,TGI,[39],4.78 µM
same,GI50,[40],15.2 µM
same,TGI,[40],28.6 µM
same,GI50,[41],2.1 µM
same,TGI,[41],4.27 µM
same,GI50,[42],2.4 µM
same,TGI,[42],5.75 µM
same,GI50,[43],2.17 µM
same,TGI,[43],4.87 µM
same,GI50,[44],3.07 µM
same,TGI,[44],7.57 µM
same,GI50,[45],2.53 µM
same,TGI,[45],5.08 µM
same,GI50,[46],2.13 µM
same,TGI,[46],4.05 µM
same,GI50,[47],6.6 µM
same,TGI,[47],20.9 µM
same,GI50,[48],6.63 µM
same,TGI,[48],20.5 µM
same,GI50,[49],2.09 µM
same,TGI,[49],3.83 µM
same,GI50,[50],10 µM
same,TGI,[50],22.8 µM
same,GI50,[51],1.61 µM
same,TGI,[51],3.77 µM
same,GI50,[52],4.59 µM
same,TGI,[52],22.4 µM
same,GI50,[53],2.19 µM
same,TGI,[53],4.43 µM
same,GI50,[54],2.3 µM
same,TGI,[54],4.9 µM
same,GI50,[55],6.98 µM
same,TGI,[55],24.9 µM
same,GI50,[56],9.87 µM
same,TGI,[56],21.9 µM

# Reference: PubChem BioAssay (NCI)
